Measurements: patent EP0245669B1, “Pharmaceutical preparation for preventing damage to living cells by free radicals, or for increasing the efficacy of organic sulphur compounds, and process for increasing the life span of isolated organs” (Medopharm Arzneimittelwerk Dr. Zillich GmbH & Co., priority 1986, dated 1987)

Columns and labels:
[1] = system: weiblichen C3H Mäusen; assay: Radiation protection: survival of mice after gamma irradiation (cobalt-60) following i.p. pretreatment; assay type: in vivo, Mäuse; details: for Ueberlebensrate nach Bestrahlung mit 9 Gy Anzahl / Ueberlebensrate nach Bestrahlung mit 10 Gy Anzahl / Ueberlebensrate nach Bestrahlung mit 11 Gy Anzahl / Ueberlebensrate nach Bestrahlung mit 12 Gy Anzahl / Ueberlebensrate nach Bestrahlung mit 13 Gy Anzahl: surviving/irradiated mice; for Ueberlebensrate in %: best result with zinc aspartate alone, 30 days after irradiation; for Ueberleben einer Bestrahlung von 14 Gy: zinc aspartate alone
Summary of the method: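 Female C3H mice (20-22 g) were given i.p. preparations 10, 30 or 120 min before cobalt-60 gamma irradiation at 9-14 Gy; controls received distilled water. Zinc and sulfur compounds were dosed sequentially or together. Survival was scored at 30 days as survivors over irradiated animals.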

[2] = system: Mäuse; assay: Toxicity of the zinc salts used as radiation protection agents (LD50); assay type: in vivo
Experimental: In diesem Beispiel wurde die Toxizität der als Strahlenschutzmittel eingesetzten Zinksalze getestet.
Der LD₅₀-Wert betrug für das Zinkaspartat 55 mg/kg Körpergewicht, für das Zinkchlorid 24 mg/kg Körpergewicht und für das Zinksulfat 45 mg/kg Körpergewicht.

[3] = Floersheim, Agents Actions 16, 580 (1985); cited from earlier work
[4] = 10 mg/kg i.p., 10 min before 9 Gy
[5] = 20 mg/kg i.p., 10 min before 9 Gy
[6] = 20 mg/kg i.p., 10 min before 10 Gy
[7] = 20 mg/kg i.p., 10 min before 11 Gy
[8] = 20 mg/kg i.p., 30 min before 9 Gy
[9] = 20 mg/kg i.p., 30 min before 10 Gy
[10] = 20 mg/kg i.p., 120 min before 9 Gy
[11] = 20 mg/kg i.p., 120 min before 10 Gy
[12] = 30 mg/kg i.p., 10 min before 9 Gy
[13] = 30 mg/kg i.p., 10 min before 10 Gy
[14] = 30 mg/kg i.p., 10 min before 11 Gy
[15] = 30 mg/kg i.p., 10 min before 12 Gy
[16] = 30 mg/kg i.p., 10 min before 13 Gy
[17] = 30 mg/kg i.p., 30 min before 9 Gy
[18] = 30 mg/kg i.p., 30 min before 10 Gy
[19] = 30 mg/kg i.p., 30 min before 11 Gy
[20] = 30 mg/kg i.p., 30 min before 12 Gy
[21] = 30 mg/kg i.p., 30 min before 13 Gy
[22] = 30 mg/kg i.p., 120 min before 9 Gy
[23] = 30 mg/kg i.p., 120 min before 10 Gy
[24] = 30 mg/kg i.p., 120 min before 11 Gy
[25] = 30 mg/kg i.p., 120 min before 12 Gy
[26] = 30 mg/kg i.p., 120 min before 13 Gy
[27] = 40 mg/kg i.p., 10 min before 9 Gy
[28] = 40 mg/kg i.p., 10 min before 10 Gy
[29] = 40 mg/kg i.p., 10 min before 11 Gy
[30] = 40 mg/kg i.p., 10 min before 12 Gy
[31] = 40 mg/kg i.p., 10 min before 13 Gy
[32] = 40 mg/kg i.p., 30 min before 9 Gy
[33] = 40 mg/kg i.p., 30 min before 10 Gy
[34] = 40 mg/kg i.p., 30 min before 11 Gy
[35] = 40 mg/kg i.p., 30 min before 12 Gy
[36] = 40 mg/kg i.p., 30 min before 13 Gy
[37] = 40 mg/kg i.p., 120 min before 9 Gy
[38] = 40 mg/kg i.p., 120 min before 10 Gy
[39] = 40 mg/kg i.p., 120 min before 11 Gy
[40] = 40 mg/kg i.p., 120 min before 12 Gy
[41] = 40 mg/kg i.p., 120 min before 13 Gy

## Zink-bis-(DL-hydrogenaspartat) [Zinkaspartat]
[1]; [4]
  Ueberlebensrate nach Bestrahlung mit 9 Gy %: 10%
  Ueberlebensrate nach Bestrahlung mit 9 Gy Anzahl: 1/10
[1]; [5]
  Ueberlebensrate nach Bestrahlung mit 9 Gy %: 67%
  Ueberlebensrate nach Bestrahlung mit 9 Gy Anzahl: 26/39
[1]; [6]
  Ueberlebensrate nach Bestrahlung mit 10 Gy %: 29%
  Ueberlebensrate nach Bestrahlung mit 10 Gy Anzahl: 13/45
[1]; [7]
  Ueberlebensrate nach Bestrahlung mit 11 Gy %: 0%
  Ueberlebensrate nach Bestrahlung mit 11 Gy Anzahl: 0/20
[1]; [8]
  Ueberlebensrate nach Bestrahlung mit 9 Gy %: 60%
  Ueberlebensrate nach Bestrahlung mit 9 Gy Anzahl: 6/10
[1]; [9]
  Ueberlebensrate nach Bestrahlung mit 10 Gy %: 0%
  Ueberlebensrate nach Bestrahlung mit 10 Gy Anzahl: 1/10
[1]; [10]
  Ueberlebensrate nach Bestrahlung mit 9 Gy %: 50%
  Ueberlebensrate nach Bestrahlung mit 9 Gy Anzahl: 5/10
[1]; [11]
  Ueberlebensrate nach Bestrahlung mit 10 Gy %: 0%
  Ueberlebensrate nach Bestrahlung mit 10 Gy Anzahl: 0/10
[1]; [12]
  Ueberlebensrate nach Bestrahlung mit 9 Gy %: 88%
  Ueberlebensrate nach Bestrahlung mit 9 Gy Anzahl: 43/49
[1]; [13]
  Ueberlebensrate nach Bestrahlung mit 10 Gy %: 74^+ %
  Ueberlebensrate nach Bestrahlung mit 10 Gy Anzahl: 43/58
[1]; [14]
  Ueberlebensrate nach Bestrahlung mit 11 Gy %: 10%
  Ueberlebensrate nach Bestrahlung mit 11 Gy Anzahl: 3/30
[1]; [15]
  Ueberlebensrate nach Bestrahlung mit 12 Gy %: 3%
  Ueberlebensrate nach Bestrahlung mit 12 Gy Anzahl: 1/30
[1]; [16]
  Ueberlebensrate nach Bestrahlung mit 13 Gy %: 0%
  Ueberlebensrate nach Bestrahlung mit 13 Gy Anzahl: 0/20
[1]; [17]
  Ueberlebensrate nach Bestrahlung mit 9 Gy %: 80%
  Ueberlebensrate nach Bestrahlung mit 9 Gy Anzahl: 8/10
[1]; [18]
  Ueberlebensrate nach Bestrahlung mit 10 Gy %: 70%
  Ueberlebensrate nach Bestrahlung mit 10 Gy Anzahl: 21/30
[1]; [19]
  Ueberlebensrate nach Bestrahlung mit 11 Gy %: 60%
  Ueberlebensrate nach Bestrahlung mit 11 Gy Anzahl: 24/40
[1]; 30 mg/kg i.p., 30 min before 11 Gy, listed as Zink-aspartat
  Ueberlebensrate nach Bestrahlung mit 11 Gy %: 60^+ %
[1]; [20]
  Ueberlebensrate nach Bestrahlung mit 12 Gy %: 57%
  Ueberlebensrate nach Bestrahlung mit 12 Gy Anzahl: 17/30
[1]; 30 mg/kg i.p., 30 min before 12 Gy, listed as Zink-aspartat
  Ueberlebensrate nach Bestrahlung mit 12 Gy %: 57^+ %
[1]; [21]
  Ueberlebensrate nach Bestrahlung mit 13 Gy %: 17%
  Ueberlebensrate nach Bestrahlung mit 13 Gy Anzahl: 5/30
[1]; [22]
  Ueberlebensrate nach Bestrahlung mit 9 Gy %: 90^+ %
  Ueberlebensrate nach Bestrahlung mit 9 Gy Anzahl: 9/10
[1]; [23]
  Ueberlebensrate nach Bestrahlung mit 10 Gy %: 40%
  Ueberlebensrate nach Bestrahlung mit 10 Gy Anzahl: 8/20
[1]; [24]
  Ueberlebensrate nach Bestrahlung mit 11 Gy %: 53%
  Ueberlebensrate nach Bestrahlung mit 11 Gy Anzahl: 16/30
[1]; [25]
  Ueberlebensrate nach Bestrahlung mit 12 Gy %: 35%
  Ueberlebensrate nach Bestrahlung mit 12 Gy Anzahl: 7/20
[1]; [26]
  Ueberlebensrate nach Bestrahlung mit 13 Gy %: 14%
  Ueberlebensrate nach Bestrahlung mit 13 Gy Anzahl: 4/29
[1]; [27]
  Ueberlebensrate nach Bestrahlung mit 9 Gy %: 59%
  Ueberlebensrate nach Bestrahlung mit 9 Gy Anzahl: 17/29
[1]; [28]
  Ueberlebensrate nach Bestrahlung mit 10 Gy %: 55%
  Ueberlebensrate nach Bestrahlung mit 10 Gy Anzahl: 16/29
[1]; [29]
  Ueberlebensrate nach Bestrahlung mit 11 Gy %: 3%
  Ueberlebensrate nach Bestrahlung mit 11 Gy Anzahl: 1/40
[1]; [30]
  Ueberlebensrate nach Bestrahlung mit 12 Gy %: 17%
  Ueberlebensrate nach Bestrahlung mit 12 Gy Anzahl: 5/30
[1]; [31]
  Ueberlebensrate nach Bestrahlung mit 13 Gy %: 5%
  Ueberlebensrate nach Bestrahlung mit 13 Gy Anzahl: 1/19
[1]; [32]
  Ueberlebensrate nach Bestrahlung mit 9 Gy %: 45%
  Ueberlebensrate nach Bestrahlung mit 9 Gy Anzahl: 9/20
[1]; [33]
  Ueberlebensrate nach Bestrahlung mit 10 Gy %: 70%
  Ueberlebensrate nach Bestrahlung mit 10 Gy Anzahl: 7/10
[1]; [34]
  Ueberlebensrate nach Bestrahlung mit 11 Gy %: 50%
  Ueberlebensrate nach Bestrahlung mit 11 Gy Anzahl: 5/10
[1]; [35]
  Ueberlebensrate nach Bestrahlung mit 12 Gy %: 30%
  Ueberlebensrate nach Bestrahlung mit 12 Gy Anzahl: 3/10
[1]; [36]
  Ueberlebensrate nach Bestrahlung mit 13 Gy %: 24^+ %
  Ueberlebensrate nach Bestrahlung mit 13 Gy Anzahl: 7/29
[1]; [37]
  Ueberlebensrate nach Bestrahlung mit 9 Gy %: 50%
  Ueberlebensrate nach Bestrahlung mit 9 Gy Anzahl: 5/10
[1]; [38]
  Ueberlebensrate nach Bestrahlung mit 10 Gy %: 50%
  Ueberlebensrate nach Bestrahlung mit 10 Gy Anzahl: 5/10
[1]; [39]
  Ueberlebensrate nach Bestrahlung mit 11 Gy %: 10%
  Ueberlebensrate nach Bestrahlung mit 11 Gy Anzahl: 1/10
[1]; [40]
  Ueberlebensrate nach Bestrahlung mit 12 Gy %: 0%
  Ueberlebensrate nach Bestrahlung mit 12 Gy Anzahl: 0/10
[1]; [41]
  Ueberlebensrate nach Bestrahlung mit 13 Gy %: 5%
  Ueberlebensrate nach Bestrahlung mit 13 Gy Anzahl: 1/19
[1]; 8 Gy
  Ueberlebensrate in %: 100%
[1]; 9 Gy
  Ueberlebensrate in %: 90%
[1]; 10 Gy
  Ueberlebensrate in %: 74%
[1]; 11 Gy
  Ueberlebensrate in %: 60%
[1]; 12 Gy
  Ueberlebensrate in %: 57%
[1]; 13 Gy
  Ueberlebensrate in %: 24%
[1]; 14 Gy
  Ueberlebensrate in %: 0%
[1]; comparison with Zinkchlorid and Zinksulfat
  Strahlenschutzwirkung: Besonders vorteilhaft
[1]; 20 mg/kg body weight, 14 Gy
  Ueberleben einer Bestrahlung von 14 Gy: nicht überlebten
[1]; 30 mg/kg body weight, 14 Gy
  Ueberleben einer Bestrahlung von 14 Gy: nicht überlebten
[2]
  LD₅₀-Wert: 55 mg/kg Körpergewicht
[3]
  akute Toxizität von Aethanol: vermindert
